Assay results taken from ChEMBL document CHEMBL1201862, “PubChem BioAssay data set” (2004).
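Tested at 5 concentrations; 48 h exposure; 96-well plates; endpoints linearly interpolated, else capped at highest concentration. Here, GI50 denotes the concentration required for 50% inhibition of growth.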 Calls of active or inactive are those of the source. No stated cut-off is given here; in the data, active = GI50 up to about 1.1 µM and inactive = higher.

Tests used:
Experiment in all cases: NCI anticancer screen, dose series, 48 h
[1] = test system: A549
[2] = test system: A498
[3] = test system: U-251
[4] = test system: SW-620
[5] = test system: NCI-H226
[6] = test system: MOLT-4
[7] = test system: SR
[8] = test system: OVCAR-4
[9] = test system: NCI-H522
[10] = test system: Malme-3M
[11] = test system: EKVX
[12] = test system: SNB-19
[13] = test system: HT-29
[14] = test system: SF-268
[15] = test system: SK-OV-3
[16] = test system: RPMI-8226
[17] = test system: LOX IMVI

Measured: GI50

COc1ccc2c(c1)[n+]([O-])c(-c1cccc(Cl)c1)c(N)[n+]2[O-]
inactive: [1] 32.7 µM | [2] > 100 µM | [3] 37.3 µM | [4] 39.7 µM | [5] > 100 µM | [6] 46 µM | [7] 43.6 µM | [8] 34.6 µM | [9] 16.5 µM | [10] 37.2 µM | [11] > 100 µM | [12] > 100 µM | [13] 41.5 µM | [14] 33.8 µM | [15] 95.9 µM

COc1cc(C2C(C(=O)Nc3ccccc3C)=C(C)NC(C)=C2C(=O)Nc2ccccc2C)ccc1O
inactive: [1] > 100 µM | [2] > 100 µM | [3] > 100 µM | [4] > 100 µM | [5] > 100 µM | [6] 60.7 µM | [16] 84.7 µM | [8] > 100 µM | [9] > 100 µM | [10] > 100 µM | [11] > 100 µM | [12] > 100 µM | [13] > 100 µM | [15] > 100 µM

Cc1ccc(S(=O)(=O)N/N=C(/c2nc3ccc([N+](=O)[O-])cc3nc2O)C(O)c2ccc(C(O)/C(=N\NS(=O)(=O)c3ccc(C)cc3)c3nc4ccc([N+](=O)[O-])cc4nc3O)cc2)cc1 (stereo not given)
inactive: [1] 49.1 µM | [2] 59 µM | [3] 67.6 µM | [4] 42.8 µM | [6] 28.2 µM | [16] 26.1 µM | [9] 3.15 µM | [10] > 100 µM | [11] 81.7 µM | [12] > 100 µM | [17] 20.3 µM | [13] 31 µM | [15] > 100 µM

CS(=O)(=O)N/N=C/CN1C(=O)c2ccccc2C1=O
inactive: [1] > 100 µM | [2] > 100 µM | [3] > 100 µM | [4] > 100 µM | [5] > 100 µM | [6] > 100 µM | [16] > 100 µM | [7] > 100 µM | [8] > 100 µM | [9] > 100 µM | [10] > 100 µM | [11] > 100 µM | [12] > 100 µM | [13] > 100 µM | [14] > 100 µM | [15] > 100 µM

COc1ccc(Br)c(CN2CCc3ccccc32)c1OS(=O)(=O)c1ccc(C)cc1
inactive: [1] 8.17 µM | [4] 16.3 µM | [5] > 100 µM | [6] 29.3 µM | [16] 26.3 µM | [7] 43.7 µM | [9] 4.39 µM | [10] 45.2 µM | [11] 58.7 µM | [12] 42.5 µM | [14] 23.7 µM

CC1C(/C=C/c2ccoc2)ON2CCCC12 (stereo not given)
inactive: [3] > 100 µM | [4] > 100 µM | [5] > 100 µM | [8] > 100 µM | [9] > 100 µM | [10] 54.2 µM | [11] > 100 µM | [12] > 100 µM | [17] > 100 µM | [13] > 100 µM | [14] > 100 µM

CN1c2ccccc2N(C(=O)c2ccc([N+](=O)[O-])cc2)C(CC(=O)O)c2cccn21 (stereo not given)
inactive: [1] > 100 µM | [2] > 100 µM | [4] > 100 µM | [5] > 100 µM | [6] > 100 µM | [16] > 100 µM | [8] > 100 µM | [9] > 100 µM | [10] > 100 µM | [11] > 100 µM | [12] > 100 µM | [17] > 100 µM | [13] > 100 µM | [14] > 100 µM | [15] > 100 µM

COC(C(O)c1ccc2c(c1)OCO2)P(=O)(c1ccccc1)c1ccccc1 (stereo not given)
inactive: [2] 75.2 µM | [3] > 100 µM | [4] > 100 µM | [5] 73.1 µM | [6] > 100 µM | [7] > 100 µM | [8] 11.1 µM | [9] 85.3 µM | [10] 16 µM | [11] > 100 µM | [12] > 100 µM | [13] > 100 µM | [14] > 100 µM | [15] > 10 µM

COC(=O)C1=C(O)c2cc3c(cc2[C@H](c2cc(OC)c(OC)c(OC)c2)C1C(=O)OC)OCO3 (stereo not given in full)
inactive: [1] > 100 µM | [2] 76 µM | [3] 82.8 µM | [4] 80.2 µM | [5] 33 µM | [6] 58.9 µM | [16] > 100 µM | [7] 86.5 µM | [8] 30.2 µM | [10] 28.9 µM | [11] 68.2 µM | [12] > 100 µM | [17] > 100 µM | [13] 95.5 µM | [14] 50.8 µM | [15] 44.1 µM
